Patent US20070185104A1, “Benzoxazole acetonitriles” (APPLIED RESEARCH SYSTEMS ARS HOLDING N.V., priority 2003, published 2007)

Each compound was assayed on db/db mice (assay: Experimental model of type II diabetes (oral postprandial glycemia in db/db mice)). Conditions: p.o. 50 mg/kg, 4 hrs after drug administration, food intake after 20 h fasting, compared to vehicle Group 1.
Assay type: in vivo
Procedure: b) In vivo Assay: Experimental Model of Type II Diabetes (Oral Postprandial Glycemia in db/db Mice)
The following assay aims at determining the anti-diabetic effect of the test compounds of formula (I) in a model of postprandial glycemia in db/db mice, in vivo.
The assay was performed as follows:
A total of 24 db/db mice (about 8-9 weeks; obtained from IFFACREDO, l'Arbreste, France) were fasted during 20 hours.
2 groups, each consisting of 6 animals were formed: • Group 1: The animals were administered (per os) a dose of 10 mg/kg of vehicle. • Group 2: The animals were administered (per os) a dose of 50 mg/kg of the test compound according to formula (I).
After oral administration of the compounds of formula (I) solubilized or suspended in CarboxyMethylCellulose (0.5%), Tween 20 (0.25%) and water as vehicle, the animals had access to commercial food (D04, UAR, Villemoisson/Orge, France) ad libitum. The diabetic state of the mice was verified by determining the blood glucose level before drug administration. Blood glucose and serum insulin levels were then determined 4 hrs after drug administration.
The determination of the blood glucose level was performed using a glucometer (Precision Q.I.D., Medisense, Abbot, ref. 212.62.31). […]
Changes in blood glucose and serum insulin of drug treated mice were expressed as a percentage of control (group 1: vehicle treated mice).

SMILES	blood glucose level reduced (percentage of vehicle control)
N#C/C(=C1\Nc2ccccc2O1)c1ccnc(NCCCN2CCCC2=O)n1 [Example 5, 1,3-benzoxazol-2(3H)-ylidene(2-{[3-(2-oxopyrrolidin-1-yl)propyl]amino}pyrimidin-4-yl)acetonitrile]	about 25%

Same assay, conditions: p.o. 50 mg/kg, serum insulin 4 hrs after drug administration, compared to vehicle Group 1

SMILES	insulin level reduced (percentage of vehicle control)
N#C/C(=C1\Nc2ccccc2O1)c1ccnc(NCCCN2CCCC2=O)n1 [Example 5, 1,3-benzoxazol-2(3H)-ylidene(2-{[3-(2-oxopyrrolidin-1-yl)propyl]amino}pyrimidin-4-yl)acetonitrile]	about 11%

The compounds below were run against human GSK3 beta (Homo sapiens, UniProt P49841) (assay: GSK3β in vitro assay (33P-ATP phosphorylation of phospho GS2 peptide)). Conditions: In vitro potency on human GSK3 beta; read-out: IC50 (μM) GSK3beta.
human GSK3 beta, sequence (P49841 whole entry): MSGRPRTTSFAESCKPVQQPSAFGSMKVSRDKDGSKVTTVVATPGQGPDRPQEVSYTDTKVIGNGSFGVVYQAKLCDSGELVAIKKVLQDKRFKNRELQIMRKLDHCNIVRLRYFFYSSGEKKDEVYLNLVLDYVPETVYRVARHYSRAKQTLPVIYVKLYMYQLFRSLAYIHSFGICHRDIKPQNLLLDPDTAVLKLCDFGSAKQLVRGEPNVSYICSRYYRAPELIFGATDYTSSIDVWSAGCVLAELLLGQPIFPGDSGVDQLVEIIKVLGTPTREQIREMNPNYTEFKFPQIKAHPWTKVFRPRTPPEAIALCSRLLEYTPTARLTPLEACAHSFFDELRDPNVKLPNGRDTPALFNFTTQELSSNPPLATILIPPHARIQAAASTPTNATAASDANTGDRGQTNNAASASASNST
Assay type: biochemical
Procedure: GSK3β Assay (see Bioorg. Med. Chem. Lett by Naerum et al. 12 p. 1525-1528 (2002))
In a final reaction volume of 25 μl, GSK3β (h) (5-10 mU) is incubated with 8 mM MOPS pH 7.0, 0.2 mM EDTA, 20 μM […](p)EDEEE (being the GSK3 substrate; a phospho GS2 peptide), 10 mM Mg Acetate and [γ-^33P-ATP] (Specific activity approx. 500 cpm/pmol, concentration as required). The reaction is initiated by the addition of Mg^2+ [γ-^33P-ATP]. After incubation for 40 minutes at room temperature, the reaction is stopped by the addition of 5 μl of a 3% phosphoric acid solution. 10 μl of the reaction is then spotted onto a P30 filtermat and washed three times for 5 minutes in 50 mM phosphoric acid and once in methanol prior to drying and the degree of phosphorylation of the substrate is determined by scintillation counting.

SMILES	IC50
Cc1cc(/C(C#N)=C2/Nc3ccccc3O2)nc(NCCCn2cncn2)n1 [Example 47]	< 10 µM
N#C/C(=C1\Nc2ccccc2O1)c1ccnc(NCc2cccnc2)n1 [Example 41, 1,3-benzoxazol-2(3H)-ylidene{2-[(pyridin-3-ylmethyl)amino]pyrimidin-4-yl}acetonitrile]	< 10 µM
CCN1CCN(c2cc(/C(C#N)=C3/Nc4ccccc4O3)ncn2)CC1 [Example 49, 1,3-benzoxazol-2(3H)-ylidene[6-(4-ethylpiperazin-1-yl)pyrimidin-4-yl]acetonitrile]	< 10 µM

Other lines, results leading:

IC50	SMILES
< 10 µM	N#C/C(=C1\Nc2ccccc2O1)c1ccnc(NC2CC2)n1 [Example 10, 1,3-benzoxazol-2(3H)-ylidene[2-(cyclopropylamino)pyrimidin-4-yl]acetonitrile]
< 10 µM	CC(=O)N1CCN(C(=O)CCCNc2nccc(/C(C#N)=C3\Nc4ccccc4O3)n2)CC1 [Example 70, (2-{[4-(4-acetyl-1-piperazinyl)-4-oxobutyl]amino}-4-pyrimidinyl)(1,3-benzoxazol-2(3H)-ylidene)ethanenitrile]
< 10 µM	CC(C)OCCCNc1nccc(/C(C#N)=C2/Nc3ccccc3O2)n1 [Example 42, 1,3-benzoxazol-2(3H)-ylidene{2-[(3-isopropoxypropyl)amino]pyrimidin-4-yl}acetonitrile]
< 10 µM	CN(C)CCCC(=O)Nc1nccc(/C(C#N)=C2/Nc3ccccc3O2)n1 [Example 89, N-{4-[1,3-benzoxazol-2(3H)-ylidene(cyano)methyl]-2-pyrimidinyl}-4-(dimethylamino)butanamide]
